Results: ChEMBL document CHEMBL1133229, “Parallel synthesis and evaluation of N-(1-phenylethyl)-5-phenyl-imidazole-2-amines as Na+/K+ ATPase inhibitors” (Bioorg Med Chem Lett, 2000)

Experiments:
[1] = molecular target: Sodium/potassium-transporting ATPase; test: Inhibition of myocardial Na+/K+ ATPase from canine cardiac sarcolemma; format: protein-complex assay, Canis lupus familiaris
Cavia porcellus = species: Cavia porcellus; test: Compound was evaluated for inotropic activity in guinea pig papillary muscle; format: functional; details: Muscle tissue

Row | IC50 [1] [µM] | EC50 (Cavia porcellus) [µM] | Structure (SMILES)
1 | 10 | – | C[C@@H](Nc1ncc(-c2ccccc2)n1C)c1ccccc1
2 | 88 | – | CC(Nc1ncc(-c2cc(C(F)(F)F)cc(C(F)(F)F)c2)n1C)c1ccccc1 (centres undefined)
3 | – | 1 | COc1cc2c(cc1OC)-c1cnc(NCc3ccccc3)n1CC2
4 | 0.8 | – | CCC(Nc1ncc(-c2ccccc2)n1C)c1ccc(Cl)cc1 (centres undefined)
5 | 61 | – | C[C@H](Nc1ncc(-c2ccccc2)n1C)c1ccccc1
6 | 10 | – | CC(Nc1ncc(-c2ccccc2)n1C)c1ccc(F)cc1 (centres undefined)
7 | 14 | – | CC(Nc1ncc(-c2cccc(-c3ccccc3)c2)n1C)c1ccccc1 (centres undefined)
8 | 77 | – | CCC(C)C(Nc1ncc(-c2ccccc2)n1C)c1ccccc1 (centres undefined)
9 | 1.3 | – | CC(Nc1ncc(-c2ccccc2)n1C)c1ccc(Cl)cc1 (centres undefined)
10 | 2.1 | – | CC(Nc1ncc(-c2ccc3ccccc3c2)n1C)c1ccccc1 (centres undefined)
11 | 99 | – | COc1ccc(-c2cnc(NC(C)c3ccccc3)n2C)cc1OC (centres undefined)
12 | 38 | – | CC(Nc1ncc(-c2ccccc2)n1C)c1ccccc1 (centres undefined)
13 | 52 | – | CC(Nc1ncc(-c2cc(F)cc(F)c2)n1C)c1ccccc1 (centres undefined)
14 | 33 | – | CC(Nc1ncc(-c2ccc(OC(F)(F)F)cc2)n1C)c1ccccc1 (centres undefined)
